PubChem BioAssay AID179 (DTP/NCI, 2004)
Calls of active or inactive are those of the source.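 The calls were made as follows: active = compounds giving half or more protection of infected cells from virus-caused growth loss, again on retest; inactive = the rest.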

Test system: CEM cells HIV-1 protection, formazan growth assay
Test: NCI AIDS Antiviral Assay
Details: for IC50: measured here: growth of uninfected CEM cells
Procedure, shortened: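 Human CEM cells, uninfected and HIV-1-infected, exposed to five drug concentrations; growth measured by soluble formazan assay and scored as percent protection from infection, with protecting compounds retested.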

SMILES | EC50 | IC50 | outcome
Nn1c(SCc2nc3ccccc3[nH]2)nnc1-c1ccccc1 | > 200 µM | > 200 µM | –
O=C1N2CCNc3ccccc3C(c3ccccc3)N1CC2 (centres undefined) | > 200 µM | 18.6 µM | –
OCCNC(=S)SSC(=S)NCCO | – | – | inactive
COc1ccc(C)cc1NC(=O)C(Br)C(Br)C(=O)O (centres undefined) | > 200 µM | 13.5 µM | –
O=[N+]([O-])/C(C(Cl)=C(Cl)Cl)=C1\NCCS1 | > 200 µM | > 100 µM | –
O=[N+]([O-])c1ccc(P2(=O)Nc3ccccc3N2)cc1 | > 245 µM | 70.8 µM | –
NC(CSC(c1ccccc1)(c1ccccc1)c1ccccc1)C(=O)O (centres undefined) | > 49 µM | 0.813 µM | –
O=C(O)c1cc(S(=O)(=O)Nc2cc(Cc3cc(NS(=O)(=O)c4ccc(O)c(C(=O)O)c4)c(O)c(C(=O)O)c3)cc(C(=O)O)c2O)ccc1O | > 100 µM | > 100 µM | –
OC1C(CBr)OC(OC[C@H](COCc2ccccc2)OCc2ccccc2)C(O)C1O (some centres undefined) | > 214 µM | > 100 µM | –
CCNC1C2(CCCCC2)NC(=O)C12CCCCC2 (centres undefined) | – | – | inactive
C[C@H]1[C@H](C)N1CC(O)Cn1ccnc1[N+](=O)[O-] (some centres undefined) | > 200 µM | > 200 µM | –
CCOc1nnc(C)o1 | > 1510 µM | > 1510 µM | –
COc1ccc2c(c1)C(N)=C(c1ccccc1)C2=O | > 200 µM | 75.9 µM | –
O=C(NCCCCCCCCCCNC(=O)c1cc(O)c(O)c(O)c1)c1cc(O)c(O)c(O)c1 | > 100 µM | 9.12 µM | –
CCOC(=O)/C(O)=C/c1cc(OC)cc(=O)o1 | – | – | inactive
O=CC1(C(O)C2SCCCS2)SCCCS1 (centres undefined) | > 100 µM | 5.5 µM | –
COc1c(C(=O)/C(=N/Nc2ccc(C(=O)O)cc2)C(C)=O)c(O)cc2occc12 | > 200 µM | 110 µM | –
CC1(C)CC2C(/C1=N/O)C1(C)CCCC2(C)C1O (centres undefined) | > 200 µM | > 200 µM | –
C=C1C(C(=O)O)C1C(=O)O (centres undefined) | – | – | inactive
O=C(O)CCSSCCCCCS(=O)O | > 200 µM | 24 µM | –
CCCCN=c1ssc(=O)n1CCCC | > 200 µM | 26.3 µM | –
CCN(CC)CCOC(=O)c1cc2cc3cc(C(=O)OCCN(CC)CC)c(=O)oc3c(C)c2oc1=O | > 200 µM | > 200 µM | –
CC(=O)/C(N=Nc1ccc(-n2c(C)nc3ccc(Br)cc3c2=O)cc1)=C(/C)O | > 200 µM | 148 µM | –

SMILES | EC50 | IC50 | outcome
CCN1C(=O)c2cc(OC)c(OC)cc2C(=O)C12OC(=O)c1cc3c(cc12)OCO3 (centres undefined) | > 200 µM | 93.3 µM | –
CCCCC(C)/C=C/C(=O)C1=C(O)/C(=C/C(=O)O)OC1=O (centres undefined) | 302 µM | 851 µM | –
O=C1C=C(Nc2ccc(S(=O)(=O)Nc3nccs3)cc2)c2ccccc2C1=O | > 316 µM | 38.9 µM | –
O=S(=O)(O)OCCOc1ccc(S(=O)(=O)c2ccc(OCCOS(=O)(=O)O)cc2)cc1 | > 200 µM | > 200 µM | –
CCN(CC)CCNc1ccc(CO)c2oc3cc(Cl)ccc3c(=O)c12 | > 25.1 µM | 4.57 µM | –
CN(C)CCNc1nc2c(no[n+]2[O-])c2ccccc12 | > 200 µM | 9.33 µM | –
CCOC(=O)c1nnc2sc(-c3ccccc3)nn12 | 58.9 µM | 191 µM | –
CCCCn1c(C)c(C(=O)OCC)c2cc(OCc3ccc(C(=O)Nn4c(C)ccc4C)cc3)c(Br)cc21 | > 95.5 µM | > 95.5 µM | –
CCOP(=O)(OCC)C1CC(C)OC1=O (centres undefined) | – | – | inactive
CSc1ncnc2c1ncn2C1CC(Oc2ccc(C)cc2)C(COc2ccc(C)cc2)O1 (centres undefined) | > 200 µM | 30.9 µM | –
C=C1CN=C(Nc2ccc(F)cc2F)S1 | > 200 µM | > 100 µM | –
C=CC(C)C1(CCCOCc2ccccc2)C(=S)N2CCC3(CC24CCCC14)OCCO3 (centres undefined) | – | – | inactive
COc1cc2c(c3oc4c(c(=O)c13)CCCC4)CCC(C)(C)O2 | > 56.2 µM | 23.4 µM | –
CC(NS(=O)(=O)c1ccc(Cl)cc1)C(=O)O (centres undefined) | – | – | inactive
COc1ccc(C)cc1-c1cc(Sc2ccccc2)c(-c2cc(C)ccc2OC)o1 | > 53.7 µM | > 53.7 µM | –
CC1(C)CNC[C@@]2(C)OCCOCCOCCO[C@@]3(C)CNCC(C)(C)NC(=O)[C@](C)(CNCC(C)(C)NC3=O)OCCOCCOCCO[C@](C)(CNCC(C)(C)NC2=O)C(=O)N1 | > 200 µM | > 200 µM | –
O=C1CSC(c2ccccc2Cl)N1N1C(=O)CSC1c1ccccc1Cl (centres undefined) | > 200 µM | 18.2 µM | –
COC(=O)c1ccccc1/C=C1\Cc2c(C)cc(C)cc2C1=O | – | – | inactive
Cc1ccc(S(=O)OC2c3ccccc3Cc3ccccc32)cc1 (centres undefined) | – | – | inactive
C(=Nc1ccc(-c2cc(-c3ccccc3)nc3ccc4ccccc4c23)cc1)c1ccccc1 | > 200 µM | 31.6 µM | –
NC(=O)CSc1nc2ccccc2c(=O)n1N | > 200 µM | > 200 µM | –
O/N=C1/C2CC3CC1(c1ccccc1)CC(/C3=N/O)/C2=N\O (centres undefined) | > 200 µM | > 200 µM | –
Clc1ccc(-c2cc(-c3cc(-c4ccc(Cl)cc4)n[nH]3)[nH]n2)cc1 | > 200 µM | > 200 µM | –

SMILES | EC50 | IC50 | outcome
[O-][n+]1nc2ccccc2c2ccccc21 | > 347 µM | 141 µM | –
N#C/C(=C\c1ccc(Cl)cc1)c1ccccc1 | > 200 µM | 32.4 µM | –
[Cl][Cu+].[NH-]C(Cc1c[nH]cn1)C(=O)O (centres undefined) | > 46.8 µM | 26.9 µM | –
Oc1cc(-c2ccccc2)cn2c1nc1ccccc12 | > 200 µM | 1.07 µM | –
CC(=O)OC1CC2OC(Cc3ccccc32)O1 (centres undefined) | > 200 µM | > 200 µM | –
COC(=O)/C=C/C(=O)/C=C/COC(=O)c1ccccc1 | > 95.5 µM | 61.7 µM | –
CC(=O)N(CC(=O)C(=O)NNc1ccoc1)c1ccc(Cl)cc1 | > 200 µM | > 200 µM | –
CCCCCCCCCCCCCCCCCCNC(=O)c1ccccc1[Se][Se]c1ccccc1C(=O)NCCCCCCCCCCCCCCCCCC | > 0.794 µM | > 0.794 µM | –
CCN(CC)CCOC(=O)c1ccc(NC(=O)CN(CC)CC)cc1 | > 200 µM | > 200 µM | –
CCOC(=O)C(O)(NC(=O)c1ccc(F)cc1)C(F)(F)F (centres undefined) | > 200 µM | > 200 µM | –
O=C1CS(=O)(=O)C(c2ccc(F)cc2)N1N1C(=O)CS(=O)(=O)C1c1ccc(F)cc1 (centres undefined) | > 200 µM | > 200 µM | –
CC1(C)c2ccccc2C(O)C12CCC(=O)CC2 (centres undefined) | > 200 µM | > 200 µM | –
COc1cccc(N2C(=O)C3c4[nH]c5ccc(C)cc5c4C4CCC(C)CC4C3C2=O)c1 (centres undefined) | > 100 µM | > 100 µM | –
CC(C)N1C(=O)NC2C1NC(=O)N2C(C)C (centres undefined) (tested in a mixture with another compound) | > 200 µM | > 200 µM | –
COc1c2c(cc3c1[C@@H]1Oc4c(ccc(O)c4CC=C(C)C)[C@@H]1CO3)OC(C)(C)C=C2 | 2.24 µM | 23.4 µM | –
CO/N=C1/C(n2[nH]c(=O)n(-c3ccccc3)c2=O)C2C=CC1n1c(=O)n(-c3ccccc3)c(=O)n12 (centres undefined) | > 200 µM | > 200 µM | –
Cc1ccc(SSCCCS(=O)O)cc1 | – | – | inactive
COc1ccc(CCNC(=S)N/C=C(\C#N)S(=O)(=O)c2ccc(C)cc2)cc1OC | > 200 µM | > 200 µM | –
COC(=O)C(Cc1ccccc1)NC(=O)C(CCCN=C(N)N)NC(=O)OCc1ccccc1 (centres undefined) | > 200 µM | > 200 µM | –
COc1ccc(C(=O)CC(=O)C(=O)Nc2ccc(C)c(C)c2)cc1 | > 22.4 µM | > 22.4 µM | –
COC(=O)c1nc(N)[nH]c(=O)c1-c1ccc(Cl)cc1 | 251 µM | 891 µM | –
CC(=O)N(C)c1ccc(/C=C2\C=Cc3ccccc32)cc1 | > 49 µM | 12.3 µM | –
Cc1ccc2nn(-c3ccc(O)cc3)nc2c1 | – | – | inactive

SMILES | EC50 | IC50 | outcome
[O-][N+]1=C(c2ccccc2)COc2ccccc21 | > 115 µM | > 115 µM | –
CCOP(=O)(OCC)C(Nc1cccc(F)c1)c1ccccc1 (centres undefined) | > 200 µM | 123 µM | –
N#Cc1[nH]c(=O)n(-c2ccc([N+](=O)[O-])cc2)c1N | > 200 µM | > 200 µM | –
O=[N+]([O-])c1cccc(S(=O)(=O)N/N=C/c2cc(I)cc([N+](=O)[O-])c2O)c1 | > 363 µM | 63.1 µM | –
O=C(O)Cn1ccc(=O)c2ccc([N+](=O)[O-])cc21 | > 200 µM | > 200 µM | –
COc1ccccc1Nc1nc2c([nH]1)c(=O)n(C)c(=O)n2C | > 200 µM | > 200 µM | –
Cn1cnc([N+](=O)[O-])c1Sc1nccn1-c1ccccc1 | > 832 µM | 9.33 µM | –
COc1ccc2c(c1OC)C(=O)N/C2=C\c1c(CCN(C)C)cc2c(c1OC)OCO2 | > 200 µM | > 100 µM | –
O=C(O)c1[nH]c(=O)[nH]c(=O)c1I | > 200 µM | > 200 µM | –
CC(=O)Nc1ccc(S(=O)(=O)c2ccc(NC(C)=O)cc2)cc1 | > 200 µM | > 200 µM | –
NCCCCN(CCCN)Cc1ccc2ccccc2c1 | > 200 µM | 72.4 µM | –
S=c1nc2sc3c(c2c(Nc2ccc(Cl)cc2)[nH]1)CCCC3 | 43.7 µM | 132 µM | –
O=C(n1[nH]c(=O)n(-c2ccc([N+](=O)[O-])cc2)c1=O)C(Cl)(Cl)Cl | > 200 µM | > 200 µM | –
c1ccc2c(c1)Cc1ccccc1-c1c-2[nH]c2ccccc12 | > 200 µM | 10.5 µM | –
COC(C(=O)[O][Ge]([CH3])([CH3])[CH3])c1ccccc1 (centres undefined) | > 251 µM | > 251 µM | –
O=C(N/C(=C\c1ccc(Br)cc1)c1nc2ccccc2s1)c1ccccc1 | > 22.9 µM | > 22.9 µM | –
COc1cccc(/C=N/[N-]C(=O)c2ccncc2)c1[O-].[Ni+2].[OH3+] | > 105 µM | > 105 µM | –
Cc1ccc(NC(=O)CC(=O)n2nc(C)c(N=Nc3ccc(S(=O)(=O)CCOS(=O)(=O)O)cc3)c2C)cc1 | > 200 µM | > 200 µM | –
O=C1NC2(CCCCC2)N=C2C(Cl)CCCC12Cl (centres undefined) | > 200 µM | > 200 µM | –
CCOC(=O)n1c(=O)nc2c3c(ncn21)Oc1c(c(-c2ccccc2)nn1-c1ccccc1)C3c1ccc(Cl)cc1 (centres undefined) | > 200 µM | 2.29 µM | –
CCOP(=O)(OCC)/C(C#N)=C/c1ccc(N(C)C)cc1 | > 813 µM | 437 µM | –
